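Cells were grown in 96-well plates and exposed to each compound for 48 hours at five concentrations; endpoints were interpolated linearly between bracketing concentrations, or set to the highest concentration if not reached. At the GI50, growth is halved.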 Calls of active or inactive are those of the source. No stated cut-off is given here; in the data, active = GI50 up to about 1.1 µM and inactive = higher.
Legend:
Assay in all cases: growth of human tumour cells (NCI), 48 h
[1] = system: M14
[2] = system: UACC-257
[3] = system: SR
[4] = system: UO-31
[5] = system: HOP-92
[6] = system: OVCAR-5
[7] = system: MDA-MB-231
[8] = system: EKVX
[9] = system: COLO 205
[10] = system: CCRF-CEM
[11] = system: UACC-62
[12] = system: 786-0
[13] = system: Malme-3M
[14] = system: HCT-15
[15] = system: KM12
[16] = system: IGROV-1
[17] = system: MDA-MB-435
[18] = system: Hs-578T
[19] = system: HCT-116
[20] = system: NCI-H522
[21] = system: HT-29
[22] = system: K562
[23] = system: SF-295
[24] = system: NCI-H23
[25] = system: SNB-75
[26] = system: OVCAR-3
[27] = system: TK-10
[28] = system: MCF7
[29] = system: HOP-62
[30] = system: NCI/ADR-RES
[31] = system: PC-3
[32] = system: SK-MEL-2
[33] = system: HCC 2998
[34] = system: DU-145
[35] = system: A549
[36] = system: SK-OV-3
[37] = system: T47D
[38] = system: SK-MEL-28
[39] = system: NCI-H460
[40] = system: BT-549
[41] = system: U-251
[42] = system: SF-268
[43] = system: OVCAR-8
[44] = system: ACHN
[45] = system: CAKI-1
[46] = system: A498
[47] = system: OVCAR-4
[48] = system: SN12C
[49] = system: SNB-19
[50] = system: SK-MEL-5
[51] = system: HL-60
[52] = system: MDA-N
[53] = system: RPMI-8226
[54] = system: NCI-H226
[55] = system: LOX IMVI
[56] = system: SW-620
[57] = system: RXF 393
[58] = system: SF-539
[59] = system: MOLT-4

## CC(CSC(=N)N)C(N)=O (stereo not drawn)
[1]
  GI50: > 100 µM (inactive)
[2]
  GI50: > 100 µM (inactive)
[3]
  GI50: > 100 µM (inactive)
[4]
  GI50: > 100 µM (inactive)
[5]
  GI50: > 100 µM (inactive)
[6]
  GI50: > 100 µM (inactive)
[7]
  GI50: > 100 µM (inactive)
[8]
  GI50: > 100 µM (inactive)
[9]
  GI50: > 100 µM (inactive)
[10]
  GI50: > 100 µM (inactive)
[11]
  GI50: > 100 µM (inactive)
[12]
  GI50: > 100 µM (inactive)
[13]
  GI50: > 100 µM (inactive)
[14]
  GI50: > 100 µM
[15]
  GI50: > 100 µM (inactive)
[16]
  GI50: > 100 µM (inactive)
[17]
  GI50: > 100 µM (inactive)
[18]
  GI50: > 100 µM (inactive)
[19]
  GI50: > 100 µM (inactive)
[20]
  GI50: > 100 µM (inactive)
[21]
  GI50: > 100 µM (inactive)
[22]
  GI50: > 100 µM (inactive)
[23]
  GI50: > 100 µM (inactive)
[24]
  GI50: > 100 µM (inactive)
[25]
  GI50: > 100 µM (inactive)
[26]
  GI50: > 100 µM (inactive)
[27]
  GI50: > 100 µM (inactive)
[28]
  GI50: > 100 µM (inactive)
[29]
  GI50: > 100 µM (inactive)
[30]
  GI50: > 100 µM (inactive)
[31]
  GI50: > 100 µM (inactive)
[32]
  GI50: > 100 µM (inactive)
[33]
  GI50: > 100 µM (inactive)
[34]
  GI50: > 100 µM (inactive)
[35]
  GI50: > 100 µM (inactive)
[36]
  GI50: > 100 µM (inactive)
[37]
  GI50: > 100 µM (inactive)
[38]
  GI50: > 100 µM (inactive)
[39]
  GI50: > 100 µM (inactive)
[40]
  GI50: > 100 µM (inactive)
[41]
  GI50: > 100 µM (inactive)
[42]
  GI50: > 100 µM (inactive)
[43]
  GI50: > 100 µM (inactive)
[44]
  GI50: > 100 µM (inactive)
[45]
  GI50: > 100 µM (inactive)
[46]
  GI50: > 100 µM (inactive)
[47]
  GI50: > 100 µM (inactive)
[48]
  GI50: > 100 µM (inactive)
[49]
  GI50: > 100 µM (inactive)
[50]
  GI50: > 100 µM (inactive)
[51]
  GI50: > 100 µM (inactive)
[52]
  GI50: > 100 µM (inactive)
[53]
  GI50: > 100 µM (inactive)
[54]
  GI50: > 100 µM (inactive)
[55]
  GI50: > 100 µM (inactive)
[56]
  GI50: > 100 µM (inactive)
[57]
  GI50: > 100 µM (inactive)

## COc1cc2c(cc1O)C(Cc1ccc(OCc3ccccc3)c(OCc3ccccc3)c1)N(C(=O)NCCc1ccccc1)CC2 (stereo not drawn)
[1]
  GI50: > 100 µM (inactive)
[2]
  GI50: > 100 µM (inactive)
[3]
  GI50: 37.3 µM (inactive)
[4]
  GI50: 69 µM (inactive)
[5]
  GI50: > 100 µM (inactive)
[6]
  GI50: > 100 µM (inactive)
[7]
  GI50: > 100 µM (inactive)
[8]
  GI50: > 100 µM (inactive)
[9]
  GI50: > 100 µM (inactive)
[10]
  GI50: 15 µM (inactive)
[11]
  GI50: > 100 µM (inactive)
[12]
  GI50: > 100 µM (inactive)
[13]
  GI50: > 100 µM (inactive)
[14]
  GI50: > 100 µM
[15]
  GI50: > 100 µM (inactive)
[16]
  GI50: > 100 µM (inactive)
[17]
  GI50: > 100 µM (inactive)
[18]
  GI50: > 100 µM (inactive)
[19]
  GI50: 45.1 µM (inactive)
[20]
  GI50: 2.88 µM (inactive)
[21]
  GI50: > 100 µM (inactive)
[22]
  GI50: 74.3 µM (inactive)
[23]
  GI50: > 100 µM (inactive)
[24]
  GI50: > 100 µM (inactive)
[25]
  GI50: > 100 µM (inactive)
[26]
  GI50: > 100 µM (inactive)
[27]
  GI50: > 100 µM (inactive)
[28]
  GI50: 14.8 µM (inactive)
[29]
  GI50: > 100 µM (inactive)
[30]
  GI50: > 100 µM (inactive)
[31]
  GI50: 54.7 µM (inactive)
[32]
  GI50: > 100 µM (inactive)
[58]
  GI50: > 100 µM (inactive)
[33]
  GI50: 86.9 µM (inactive)
[34]
  GI50: > 100 µM (inactive)
[35]
  GI50: 20.8 µM (inactive)
[36]
  GI50: > 100 µM (inactive)
[37]
  GI50: 16.4 µM (inactive)
[59]
  GI50: > 100 µM (inactive)
[39]
  GI50: > 100 µM (inactive)
[40]
  GI50: > 100 µM (inactive)
[41]
  GI50: > 100 µM (inactive)
[42]
  GI50: > 100 µM (inactive)
[43]
  GI50: > 100 µM (inactive)
[44]
  GI50: > 100 µM (inactive)
[45]
  GI50: > 100 µM (inactive)
[46]
  GI50: 78.5 µM (inactive)
[47]
  GI50: 78.9 µM (inactive)
[48]
  GI50: > 100 µM (inactive)
[49]
  GI50: > 100 µM (inactive)
[50]
  GI50: 33 µM (inactive)
[51]
  GI50: 37.3 µM (inactive)
[52]
  GI50: > 100 µM (inactive)
[53]
  GI50: 10.4 µM (inactive)
[54]
  GI50: > 100 µM (inactive)
[55]
  GI50: > 100 µM (inactive)
[56]
  GI50: > 100 µM (inactive)
[57]
  GI50: > 100 µM (inactive)

## COc1cc2c(cc1O)[C@]1(Cc3ccc4c(c3C1=O)OCO4)N(C)CC2
[1]
  GI50: > 100 µM (inactive)
[2]
  GI50: > 100 µM (inactive)
[3]
  GI50: > 100 µM (inactive)
[4]
  GI50: > 100 µM (inactive)
[5]
  GI50: > 100 µM (inactive)
[6]
  GI50: > 100 µM (inactive)
[7]
  GI50: > 100 µM (inactive)
[8]
  GI50: > 100 µM (inactive)
[9]
  GI50: > 100 µM (inactive)
[10]
  GI50: > 100 µM (inactive)
[11]
  GI50: > 100 µM (inactive)
[12]
  GI50: > 100 µM (inactive)
[13]
  GI50: > 100 µM (inactive)
[14]
  GI50: > 100 µM
[15]
  GI50: > 100 µM (inactive)
[16]
  GI50: > 100 µM (inactive)
[17]
  GI50: > 100 µM (inactive)
[18]
  GI50: > 100 µM (inactive)
[19]
  GI50: > 100 µM (inactive)
[20]
  GI50: > 100 µM (inactive)
[21]
  GI50: > 100 µM (inactive)
[22]
  GI50: > 100 µM (inactive)
[23]
  GI50: > 100 µM (inactive)
[24]
  GI50: > 100 µM (inactive)
[25]
  GI50: 73.5 µM (inactive)
[26]
  GI50: > 100 µM (inactive)
[27]
  GI50: > 100 µM (inactive)
[28]
  GI50: > 100 µM (inactive)
[29]
  GI50: > 100 µM (inactive)
[30]
  GI50: > 100 µM (inactive)
[31]
  GI50: > 100 µM (inactive)
[32]
  GI50: > 100 µM (inactive)
[58]
  GI50: > 100 µM (inactive)
[33]
  GI50: > 100 µM (inactive)
[34]
  GI50: > 100 µM (inactive)
[35]
  GI50: > 100 µM (inactive)
[36]
  GI50: > 100 µM (inactive)
[37]
  GI50: > 100 µM (inactive)
[38]
  GI50: > 100 µM (inactive)
[59]
  GI50: > 100 µM (inactive)
[39]
  GI50: > 100 µM (inactive)
[40]
  GI50: > 100 µM (inactive)
[41]
  GI50: > 100 µM (inactive)
[42]
  GI50: > 100 µM (inactive)
[43]
  GI50: > 100 µM (inactive)
[44]
  GI50: > 100 µM (inactive)
[45]
  GI50: > 100 µM (inactive)
[46]
  GI50: > 100 µM (inactive)
[47]
  GI50: > 100 µM (inactive)
[48]
  GI50: > 100 µM (inactive)
[49]
  GI50: > 100 µM (inactive)
[50]
  GI50: > 100 µM (inactive)
[51]
  GI50: > 100 µM (inactive)
[52]
  GI50: > 100 µM (inactive)
[53]
  GI50: > 100 µM (inactive)
[54]
  GI50: > 100 µM (inactive)
[56]
  GI50: > 100 µM (inactive)
[57]
  GI50: > 100 µM (inactive)

Reference: ChEMBL document CHEMBL1201862, “PubChem BioAssay data set” (2004)
